Values quoted from earlier work as cited in patent US20160015644A1, “GASTRO-RETENTIVE SUSTAINED-RELEASE ORAL DOSAGE FORM OF A BILE ACID SEQUESTRANT” (IRONWOOD PHARMACEUTICALS, INC., priority 2013, published 2016).

What was measured:
gastric proton pump [1] = target: gastric proton pump (Canis lupus familiaris, UniProt P50996); details: conscious, pentagastrin-stimulated fistula dog
gastric proton pump [2] = target: gastric proton pump (Homo sapiens, UniProt P20648)
gastric proton pump (Homo sapiens, UniProt P20648), sequence (P20648 whole entry): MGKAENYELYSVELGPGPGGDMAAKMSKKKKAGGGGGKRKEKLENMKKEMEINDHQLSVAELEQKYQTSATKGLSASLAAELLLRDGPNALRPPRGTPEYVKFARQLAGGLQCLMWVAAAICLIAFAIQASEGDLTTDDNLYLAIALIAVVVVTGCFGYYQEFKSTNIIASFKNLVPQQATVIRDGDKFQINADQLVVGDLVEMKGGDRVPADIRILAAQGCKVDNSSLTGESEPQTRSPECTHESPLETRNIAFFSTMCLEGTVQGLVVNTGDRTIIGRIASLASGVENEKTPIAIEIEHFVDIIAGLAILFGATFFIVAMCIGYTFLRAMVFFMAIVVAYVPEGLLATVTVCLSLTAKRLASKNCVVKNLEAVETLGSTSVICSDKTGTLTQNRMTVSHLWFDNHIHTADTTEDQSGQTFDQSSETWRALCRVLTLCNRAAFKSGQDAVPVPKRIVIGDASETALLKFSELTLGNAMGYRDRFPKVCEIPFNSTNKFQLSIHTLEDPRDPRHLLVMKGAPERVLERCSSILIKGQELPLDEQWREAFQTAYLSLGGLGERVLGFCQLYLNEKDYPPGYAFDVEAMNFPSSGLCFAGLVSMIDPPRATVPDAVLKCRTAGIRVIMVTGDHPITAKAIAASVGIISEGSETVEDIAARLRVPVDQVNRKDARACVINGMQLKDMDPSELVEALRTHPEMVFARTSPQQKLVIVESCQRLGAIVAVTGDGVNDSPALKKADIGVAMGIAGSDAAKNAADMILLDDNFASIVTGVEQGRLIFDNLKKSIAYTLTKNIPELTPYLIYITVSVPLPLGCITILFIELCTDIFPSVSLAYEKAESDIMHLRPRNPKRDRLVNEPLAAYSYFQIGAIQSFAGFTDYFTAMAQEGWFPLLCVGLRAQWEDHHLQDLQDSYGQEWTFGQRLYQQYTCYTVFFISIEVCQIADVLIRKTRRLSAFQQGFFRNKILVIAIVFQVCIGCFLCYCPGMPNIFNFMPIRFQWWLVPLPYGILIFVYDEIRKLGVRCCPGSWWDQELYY
gastric proton pump (Homo sapiens, UniProt P20648), sequence (P51164 whole entry partner): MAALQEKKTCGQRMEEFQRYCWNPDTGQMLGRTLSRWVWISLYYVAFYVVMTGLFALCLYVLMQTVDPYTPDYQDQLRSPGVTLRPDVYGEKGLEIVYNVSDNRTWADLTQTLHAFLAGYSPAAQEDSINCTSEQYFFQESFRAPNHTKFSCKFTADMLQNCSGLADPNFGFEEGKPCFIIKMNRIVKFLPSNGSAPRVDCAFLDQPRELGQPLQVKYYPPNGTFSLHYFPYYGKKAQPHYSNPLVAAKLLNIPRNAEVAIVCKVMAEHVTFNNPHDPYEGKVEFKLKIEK

gastric proton pump (Canis lupus familiaris, UniProt P50996), sequence (P50996 whole entry): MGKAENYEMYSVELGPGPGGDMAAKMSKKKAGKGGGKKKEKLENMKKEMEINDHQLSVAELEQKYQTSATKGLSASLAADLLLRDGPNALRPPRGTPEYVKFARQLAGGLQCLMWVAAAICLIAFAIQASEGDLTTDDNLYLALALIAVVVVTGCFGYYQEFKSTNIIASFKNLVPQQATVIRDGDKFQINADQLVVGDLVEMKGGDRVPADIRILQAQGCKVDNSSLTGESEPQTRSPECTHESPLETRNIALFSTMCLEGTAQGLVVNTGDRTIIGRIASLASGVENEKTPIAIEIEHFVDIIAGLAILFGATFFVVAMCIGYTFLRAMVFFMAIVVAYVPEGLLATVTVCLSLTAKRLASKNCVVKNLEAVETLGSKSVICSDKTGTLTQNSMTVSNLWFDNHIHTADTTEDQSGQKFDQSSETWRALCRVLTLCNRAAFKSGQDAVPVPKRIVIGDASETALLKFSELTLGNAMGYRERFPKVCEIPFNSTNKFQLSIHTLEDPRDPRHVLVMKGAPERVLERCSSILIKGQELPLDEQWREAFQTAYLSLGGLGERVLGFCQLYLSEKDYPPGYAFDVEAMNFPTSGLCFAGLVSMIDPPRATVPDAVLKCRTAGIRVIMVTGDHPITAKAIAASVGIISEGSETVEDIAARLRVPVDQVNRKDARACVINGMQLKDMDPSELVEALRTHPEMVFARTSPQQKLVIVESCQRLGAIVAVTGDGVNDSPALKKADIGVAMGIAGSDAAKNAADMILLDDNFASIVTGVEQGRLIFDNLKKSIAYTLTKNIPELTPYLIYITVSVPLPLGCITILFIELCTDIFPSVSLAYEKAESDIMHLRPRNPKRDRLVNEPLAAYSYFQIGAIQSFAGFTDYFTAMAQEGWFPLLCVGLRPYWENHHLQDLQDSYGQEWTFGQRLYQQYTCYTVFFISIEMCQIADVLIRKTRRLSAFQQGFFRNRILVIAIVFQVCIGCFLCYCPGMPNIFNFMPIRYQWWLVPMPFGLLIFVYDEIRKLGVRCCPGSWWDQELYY
gastric proton pump (Canis lupus familiaris, UniProt P50996), sequence (P33704 whole entry partner): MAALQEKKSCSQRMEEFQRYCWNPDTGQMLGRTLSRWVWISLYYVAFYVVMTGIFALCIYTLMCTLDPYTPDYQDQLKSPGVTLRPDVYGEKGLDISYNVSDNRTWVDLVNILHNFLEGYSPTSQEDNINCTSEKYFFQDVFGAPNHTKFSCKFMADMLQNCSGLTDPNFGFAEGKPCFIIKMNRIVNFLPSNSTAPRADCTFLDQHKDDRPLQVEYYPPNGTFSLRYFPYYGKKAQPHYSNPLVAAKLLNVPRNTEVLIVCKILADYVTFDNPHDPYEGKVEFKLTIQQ

## COC(=O)Nc1cccc(C)c1CNc1cccn2c(C)c(C)nc12 [BY841, (8-(2-methoxcarbonylamino-6-methyl-phenylmethylamino)-2,3-dimethyl-imida [1,2-a]-pyridine)]
Gastric proton pump [1]
  intragastric pH: ≤ 6
Gastric proton pump [1]; elevation of intragastric pH
  comparison with ranitidine and omeprazole: superior to both ranitidine and omeprazole
Gastric proton pump [2]; 50 mg or 100 mg twice daily, Day one of treatment
  effectiveness in comparison with the standard dose of omeprazole: markedly more effective
Gastric proton pump [2]; 50 mg or 100 mg twice daily, following repeated daily administration
  potency in comparison with the standard dose of omeprazole: at least as potent as omeprazole
Gastric proton pump [2]; single 50 mg oral dose
  intragastric pH: about 6
